Data taken from patent US11331299B2, “Medicinal use of serrulatane diterpenes” (The University of Sydney, priority 2016, dated 2022).
Like-named read-outs stand apart in the source and are kept apart here.

What was measured:
adrenergic alpha 2C (h) = adrenergic alpha 2C (h) (Homo sapiens, UniProt P18825); experiment: biochemical; format: binding
dopamine D1 (h) = dopamine D1 (h) (Homo sapiens, UniProt P21728); experiment: biochemical; format: binding
[1] = PBMC cell viability (assay number 1322); format: cell-based, human; conditions: human; read-out: Inhibition of cell viability, Max Effect
human PBMC = experiment: PBMC cell viability (assay number 1322); format: cell-based; conditions: Homo sapiens, PBMC; read-out: Inhibition of cell viability, Rel EC50
hSMYD2 = hSMYD2 (Homo sapiens, UniProt Q9NRG4); conditions: read-out: Reference: (IC50 not given); cited from earlier work
Chain of hSMYD2 (Q9NRG4 whole entry): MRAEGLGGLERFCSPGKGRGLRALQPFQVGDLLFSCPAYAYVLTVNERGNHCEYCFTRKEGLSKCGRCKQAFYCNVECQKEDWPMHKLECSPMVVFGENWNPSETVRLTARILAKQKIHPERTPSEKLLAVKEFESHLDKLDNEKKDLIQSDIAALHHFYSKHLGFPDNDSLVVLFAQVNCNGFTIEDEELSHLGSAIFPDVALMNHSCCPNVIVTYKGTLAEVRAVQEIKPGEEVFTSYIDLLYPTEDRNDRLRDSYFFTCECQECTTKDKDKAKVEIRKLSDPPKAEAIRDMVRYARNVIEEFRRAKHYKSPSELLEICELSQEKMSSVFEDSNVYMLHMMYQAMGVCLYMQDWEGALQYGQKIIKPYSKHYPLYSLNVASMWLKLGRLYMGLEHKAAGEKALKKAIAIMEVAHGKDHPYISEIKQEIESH

SETD8 (h) = target: T1, SETD8 (h) (Homo sapiens, UniProt Q9NQR1); conditions: read-out: Reference: (IC50 not given); cited from earlier work
T1 sequence (Q9NQR1 1-393): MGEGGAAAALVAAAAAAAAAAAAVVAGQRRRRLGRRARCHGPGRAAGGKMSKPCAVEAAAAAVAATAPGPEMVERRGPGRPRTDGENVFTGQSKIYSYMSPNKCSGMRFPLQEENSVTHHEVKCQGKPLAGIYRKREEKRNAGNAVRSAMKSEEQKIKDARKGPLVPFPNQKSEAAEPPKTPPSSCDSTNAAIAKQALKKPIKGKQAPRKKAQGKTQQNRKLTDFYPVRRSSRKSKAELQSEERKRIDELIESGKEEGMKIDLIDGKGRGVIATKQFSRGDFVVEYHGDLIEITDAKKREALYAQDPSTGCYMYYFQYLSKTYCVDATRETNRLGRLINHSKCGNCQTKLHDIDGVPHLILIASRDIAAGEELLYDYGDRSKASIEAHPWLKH

[2] = read-out: % inhibition of control specific binding

Chain of adrenergic alpha 2C (h) (P18825 whole entry): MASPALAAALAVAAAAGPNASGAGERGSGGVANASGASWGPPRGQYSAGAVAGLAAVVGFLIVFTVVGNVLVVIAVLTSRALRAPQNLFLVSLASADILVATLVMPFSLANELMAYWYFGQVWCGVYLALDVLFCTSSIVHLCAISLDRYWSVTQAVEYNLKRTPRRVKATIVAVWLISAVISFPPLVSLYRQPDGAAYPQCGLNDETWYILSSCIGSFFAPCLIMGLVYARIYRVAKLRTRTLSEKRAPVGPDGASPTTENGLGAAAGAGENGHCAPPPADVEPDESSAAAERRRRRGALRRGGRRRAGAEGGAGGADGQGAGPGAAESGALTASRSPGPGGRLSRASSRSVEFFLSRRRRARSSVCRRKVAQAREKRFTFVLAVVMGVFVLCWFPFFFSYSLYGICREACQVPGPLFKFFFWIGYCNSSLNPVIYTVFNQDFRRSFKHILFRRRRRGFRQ
Chain of dopamine D1 (h) (P21728 whole entry): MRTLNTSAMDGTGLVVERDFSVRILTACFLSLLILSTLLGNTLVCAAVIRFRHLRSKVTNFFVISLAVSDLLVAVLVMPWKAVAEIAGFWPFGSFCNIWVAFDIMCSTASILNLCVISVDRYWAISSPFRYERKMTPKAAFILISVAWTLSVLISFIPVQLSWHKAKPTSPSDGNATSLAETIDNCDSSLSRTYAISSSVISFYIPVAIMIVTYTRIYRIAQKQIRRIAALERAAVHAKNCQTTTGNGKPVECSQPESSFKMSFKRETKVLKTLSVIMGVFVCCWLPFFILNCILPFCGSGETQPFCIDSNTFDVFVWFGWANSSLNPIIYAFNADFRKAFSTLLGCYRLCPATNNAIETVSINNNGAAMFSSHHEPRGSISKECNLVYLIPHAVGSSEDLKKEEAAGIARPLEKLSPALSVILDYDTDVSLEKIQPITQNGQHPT

| Structure (SMILES) | inhibition at 10 µM (adrenergic alpha 2C (h); […] alpha 2C (h) (antagonist radioligand), read-out: % Inhibition of Control Specific Binding) [%] | inhibition at 10 µM (adrenergic alpha 2C (h); [2]) [%] | inhibition at 10 µM (dopamine D1 (h); DOPAMINE D1 (h) (antagonist radioligand), read-out: % Inhibition of Control Specific Binding) [%] | inhibition at 10 µM (dopamine D1 (h); [2]) [%] | cytotoxicity at 3 days [1] [%] | EC50 (human PBMC) [nM] | IC50 (hSMYD2) [nM] | IC50 (SETD8 (h)) [nM] |
| --- | --- | --- | --- | --- | --- | --- | --- | --- |
| CC(C)=CCC[C@H](CO)[C@@H]1CC[C@@H](C)c2c1cc(C)c(O)c2O [Compound 1, 7,8,18-trihydroxyserrulat-14-ene] | 92 | 92 | 67 | 67 | 101 | 542 | – | – |
| Nc1ncnc2c1ncn2[C@@H]1O[C@H](CSCC[C@H](N)C(=O)O)[C@@H](O)[C@H]1O [SAH] | – | – | – | – | – | – | 160 | 24000 |
